Several values for one entry are separate records, joined by “and”; a condition that tells them apart may be missing. Identical values can stand only once. Inconclusive results and toxic doses are left out.
Tested on: BDF1 mice, B16 melanoma ip, median survival T/C
Assay: NCI In Vivo Anticancer Drug Screen. Data for tumor model B16 Melanoma (intraperitoneal) in B6D2F1 (BDF1) mice
Details: endpoint: median survival time, higher = longer survival
Description: The antitumor activity of compounds was measured in mice bearing transplantable tumors. Survival or tumor size were measured and the results are expressed as the measurement made in the treated group (T) divided by the measurement made in the vehicle treated control group (C). The tumor model used in this assay is B16 Melanoma (intraperitoneal) in B6D2F1 (BDF1) mice

[1] = dose: 100.0 mg/kg/injection, schedule: Q01DX009 (ip), vehicle: Klucel (hydroxypropylcellulose) (HPC)
[2] = dose: 50.0 mg/kg/injection, schedule: Q01DX009 (ip), vehicle: saline with Tween-80
[3] = dose: 100.0 mg/kg/injection, schedule: Q01DX009 (ip), vehicle: saline with Tween-80
[4] = dose: 200.0 mg/kg/injection, schedule: Q01DX009 (ip), vehicle: saline with Tween-80
[5] = dose: 12.5 mg/kg/injection, schedule: Q01DX009 (ip), vehicle: saline with Tween-80
[6] = dose: 25.0 mg/kg/injection, schedule: Q01DX009 (ip), vehicle: saline with Tween-80
[7] = dose: 400.0 mg/kg/injection, schedule: Q01DX009 (ip), vehicle: saline with Tween-80

SMILES: CC(C)(COC(=O)c1ccccc1)COC(=O)c1ccccc1
- T/C [1]: 111 % of control
- T/C (dose: 200.0 mg/kg/injection, schedule: Q01DX009 (ip), vehicle: Klucel (hydroxypropylcellulose) (HPC)): 105 % of control
- T/C (dose: 400.0 mg/kg/injection, schedule: Q01DX009 (ip), vehicle: Klucel (hydroxypropylcellulose) (HPC)): 99 % of control

SMILES: OCCc1ccccc1
- T/C (dose: 31.3 mg/kg/injection, schedule: Q01DX009 (ip), vehicle: saline with Tween-80): 93 % of control
- T/C [2]: 100 % of control
- T/C (dose: 62.5 mg/kg/injection, schedule: Q01DX009 (ip), vehicle: saline with Tween-80): 95 % of control
- T/C [3]: 97 % of control
- T/C (dose: 125.0 mg/kg/injection, schedule: Q01DX009 (ip), vehicle: saline with Tween-80): 100 % of control
- T/C [4]: 105 % of control
- T/C (dose: 250.0 mg/kg/injection, schedule: Q01DX009 (ip), vehicle: saline with Tween-80): 93 % of control

SMILES: CC[C@]1(O)C[C@H](OC2CC(N(C)C)C(OC3CC(O)C(O)C(C)O3)C(C)O2)c2c(cc3c(c2O)C(=O)c2c(O)ccc(O)c2C3=O)[C@H]1C(=O)OC (some centres not stated)
- T/C (dose: 0.2 mg/kg/injection, schedule: Q01DX009 (ip), vehicle: carboxymethylcellulose (CMC)): 113 % of control
- T/C (dose: 0.25 mg/kg/injection, schedule: Q01DX009 (ip), vehicle: saline with Tween-80): 120 % of control
- T/C (dose: 0.4 mg/kg/injection, schedule: Q01DX009 (ip), vehicle: carboxymethylcellulose (CMC)): 94 % of control
- T/C (dose: 1.0 mg/kg/injection, schedule: Q01DX009 (ip), vehicle: saline with Tween-80): 159 % of control
- T/C (dose: 2.0 mg/kg/injection, schedule: Q01DX009 (ip), vehicle: saline with Tween-80): 179 % of control

SMILES: Oc1c(Cl)c(Cl)c(Cl)c(Cl)c1Cl (tested in a mixture with another compound)
- T/C [5]: 107 % of control
- T/C (dose: 12.5 mg/kg/injection, schedule: Q04DX003 (ip), vehicle: saline with Tween-80): 122 % of control
- T/C [6]: 115 % of control
- T/C (dose: 25.0 mg/kg/injection, schedule: Q04DX003 (ip), vehicle: saline with Tween-80): 102 % of control
- T/C [2]: 121 % of control
- T/C (dose: 50.0 mg/kg/injection, schedule: Q04DX003 (ip), vehicle: saline with Tween-80): 102 % of control

SMILES: CC(=O)c1ccccc1C
- T/C [5]: 102 % of control
- T/C [6]: 108 % of control
- T/C [2]: 92 % of control and 123 % of control

SMILES: C1CNCCN1
- T/C (dose: 25.0 mg/kg/injection, schedule: Q01DX009 (ip), vehicle: suspension in saline): 93 % of control
- T/C (dose: 50.0 mg/kg/injection, schedule: Q01DX009 (ip), vehicle: suspension in saline): 102 % of control
- T/C (dose: 100.0 mg/kg/injection, schedule: Q01DX009 (ip), vehicle: suspension in saline): 106 % of control
- T/C (dose: 200.0 mg/kg/injection, schedule: Q01DX009 (ip), vehicle: suspension in saline): 90 % of control

SMILES: CCSCCC1(CCC(C)C)C(=O)NC(=Nc2ccccc2)NC1=O (configuration not stated)
- T/C [2]: 91 % of control
- T/C [3]: 89 % of control
- T/C [7]: 96 % of control

SMILES: COC(=O)CCC1=C(C)c2cc3[n-]c(cc4nc(cc5[n-]c(cc1n2)c(CCC(=O)OC)c5C)C=C4C)cc3C.[Ni+2]
- T/C (dose: 1.56 mg/kg/injection, schedule: Q01DX009 (ip), vehicle: saline with Tween-80): 91 % of control
- T/C (dose: 3.13 mg/kg/injection, schedule: Q01DX009 (ip), vehicle: saline with Tween-80): 88 % of control
- T/C (dose: 6.25 mg/kg/injection, schedule: Q01DX009 (ip), vehicle: saline with Tween-80): 86 % of control

SMILES: O=C(C=P(c1ccccc1)(c1ccccc1)c1ccccc1)c1ccccc1
- T/C (dose: 100.0 mg/kg/injection, schedule: Q04DX003 (ip), vehicle: saline with Tween-80): 102 % of control
- T/C (dose: 200.0 mg/kg/injection, schedule: Q04DX003 (ip), vehicle: saline with Tween-80): 102 % of control
- T/C (dose: 400.0 mg/kg/injection, schedule: Q04DX003 (ip), vehicle: saline with Tween-80): 102 % of control

SMILES: O=C(O)C1CCCN1CCc1ccccc1 (configuration not stated)
- T/C (dose: 100.0 mg/kg/injection, schedule: Q04DX003 (ip), vehicle: saline): 98 % of control
- T/C (dose: 200.0 mg/kg/injection, schedule: Q04DX003 (ip), vehicle: saline): 103 % of control
- T/C (dose: 400.0 mg/kg/injection, schedule: Q04DX003 (ip), vehicle: saline): 102 % of control

SMILES: CN(C)c1ccc2cc(S(=O)(=O)O)cc(O)c2c1
- T/C [3]: 97 % of control
- T/C [4]: 94 % of control

SMILES: N#C/C(=C\c1ccncc1)c1csc2ccccc12
- T/C (dose: 50.0 mg/kg/injection, schedule: Q01DX009 (ip), vehicle: Klucel (hydroxypropylcellulose) (HPC)): 88 % of control
- T/C [1]: 89 % of control

SMILES: CCc1cc(C)cc(OC(=O)Nc2ccc(Cl)c(Cl)c2)c1
- T/C [3]: 101 % of control
- T/C [4]: 92 % of control
- T/C [7]: 87 % of control

From PubChem BioAssay AID192 (DTP/NCI, 2004)
